As a reminder, the IC50 is the midpoint of a concentration-inhibition curve. Lower therefore signals greater potency. Broadly, the inhibition is the drop in the measured response relative to a control, in per cent.

The record followed here is ChEMBL document CHEMBL3526034 (Drug Metab Dispos, 2013).

The target in data set [1] is T1, UDP-glucuronosyltransferase 1A1 (Homo sapiens, UniProt P22309).
T1 sequence (P22309 whole entry): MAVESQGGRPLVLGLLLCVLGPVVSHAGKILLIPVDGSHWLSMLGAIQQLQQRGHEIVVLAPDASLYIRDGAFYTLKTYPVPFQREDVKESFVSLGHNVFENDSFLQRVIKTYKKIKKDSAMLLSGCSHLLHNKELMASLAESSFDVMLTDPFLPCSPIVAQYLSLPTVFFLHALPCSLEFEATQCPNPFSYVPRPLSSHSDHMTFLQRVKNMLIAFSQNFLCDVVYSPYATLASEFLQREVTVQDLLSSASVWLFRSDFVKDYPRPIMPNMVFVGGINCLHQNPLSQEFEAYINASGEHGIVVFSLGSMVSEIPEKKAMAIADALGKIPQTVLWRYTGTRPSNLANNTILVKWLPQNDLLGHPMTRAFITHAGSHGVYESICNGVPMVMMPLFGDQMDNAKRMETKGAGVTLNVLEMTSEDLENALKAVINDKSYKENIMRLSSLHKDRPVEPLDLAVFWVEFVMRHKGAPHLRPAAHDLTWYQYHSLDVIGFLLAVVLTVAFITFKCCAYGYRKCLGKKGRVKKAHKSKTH
Description: Drug metabolism in UDPGA-fortified human liver microsomes assessed as intrinsic clearance for UGT1A1-mediated DTG glucuronide M2 ((2S,3S,4S,5R,6S)-6-((4R,12aS)-9-(2,4-difluorobenzylcarbamoyl)-4-methyl-6,8-dioxo-3,4,6,8,12,12a-hexahydro-2H-[1,3]oxazino[3,2-d]pyrido[1,2-a]pyrazin-7-yloxy)-3,4,5-trihydroxytetrahydro-2H-pyran-2-carboxylic acid) formation after 120 mins measured per mg of protein by radio-HPLC analysis. The class given is ADME. A general note: Liver microsomes are vesicles of endoplasmic reticulum, rich in cytochrome P450 enzymes.

Data set [2] in a line: Drug excretion in human urine at 20 mg, po. Format: ADME, tissue-based. As to conditions: read-out: Drug excretion.
Data set [3] deals with T2, Broad substrate specificity ATP-binding cassette transporter ABCG2 (Homo sapiens, UniProt Q9UNQ0).
T2 sequence (Q9UNQ0 whole entry): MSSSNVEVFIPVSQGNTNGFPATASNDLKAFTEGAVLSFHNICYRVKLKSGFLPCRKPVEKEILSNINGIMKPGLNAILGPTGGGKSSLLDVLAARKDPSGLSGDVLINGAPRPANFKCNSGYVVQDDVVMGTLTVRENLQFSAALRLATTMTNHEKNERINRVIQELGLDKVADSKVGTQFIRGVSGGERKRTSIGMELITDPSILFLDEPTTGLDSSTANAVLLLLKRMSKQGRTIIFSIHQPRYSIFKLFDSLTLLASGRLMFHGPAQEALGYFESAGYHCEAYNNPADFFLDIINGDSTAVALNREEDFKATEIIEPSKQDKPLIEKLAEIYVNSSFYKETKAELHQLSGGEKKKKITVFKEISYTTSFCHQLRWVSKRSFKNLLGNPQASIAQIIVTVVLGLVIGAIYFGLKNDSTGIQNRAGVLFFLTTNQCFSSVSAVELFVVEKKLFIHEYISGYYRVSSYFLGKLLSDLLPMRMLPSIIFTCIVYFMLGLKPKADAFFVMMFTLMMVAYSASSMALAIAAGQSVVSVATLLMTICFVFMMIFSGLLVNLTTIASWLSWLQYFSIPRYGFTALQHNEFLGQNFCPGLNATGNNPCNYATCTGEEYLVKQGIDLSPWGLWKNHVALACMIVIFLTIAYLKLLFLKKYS
Description: Inhibition of human BCRP. The class given is ADME.

In a further data set the test system is Liver microsome. Description: Drug metabolism in UDPGA-fortified human liver microsomes assessed as DTG glucuronide metabolite ((2S,3S,4S,5R,6S)-6-((4R,12aS)-9-(2,4-difluorobenzylcarbamoyl)-4-methyl-6,8-dioxo-3,4,6,8,12,12a-hexahydro-2H-[1,3]oxazino[3,2-d]pyrido[1,2-a]pyrazin-7-yloxy)-3,4,5-trihydroxytetrahydro-2H-pyran-2-carboxylic acid) formation at 10 uM after 120 mins by radio-HPLC analysis in presence of UGT1A1 inhibitor atazanavir. The class given is ADME.

For a further data set, the target named is CYP2D6 (Homo sapiens, UniProt P10635). Description: Inhibition of CYP2D6 in human liver microsomes using bufuralol as substrate at 100 uM preincubated for 20 mins with substrate prior to initiation of reaction with NADPH by HPLC analysis. Conditions: probe bufuralol. The class given is ADME.
Data set [4] deals with T1, UDP-glucuronosyltransferase 1A1. Description: Drug metabolism assessed as intrinsic clearance for human recombinant UGT1A1-mediated DTG glucuronide M2 ((2S,3S,4S,5R,6S)-6-((4R,12aS)-9-(2,4-difluorobenzylcarbamoyl)-4-methyl-6,8-dioxo-3,4,6,8,12,12a-hexahydro-2H-[1,3]oxazino[3,2-d]pyrido[1,2-a]pyrazin-7-yloxy)-3,4,5-trihydroxytetrahydro-2H-pyran-2-carboxylic acid) formation after 120 mins measured per mg of protein by radio-HPLC analysis. Format: ADME. Conditions: recombinant enzyme.

The target in a further data set is UGT1A1 (Homo sapiens, UniProt P22309). Description: Inhibition of human recombinant UGT1A1 expressed in supersomes assessed as scopoletin glucuronidation at 100 uM by fluorescence analysis. Conditions: probe scopoletin. Format: ADME.
Data set [5] has as its target UDP-glucuronosyltransferase 1A4 (Homo sapiens, UniProt P22310). In words: Drug metabolism assessed as UDPGA-fortified human recombinant UGT1A4-mediated DTG glucuronide metabolite ((2S,3S,4S,5R,6S)-6-((4R,12aS)-9-(2,4-difluorobenzylcarbamoyl)-4-methyl-6,8-dioxo-3,4,6,8,12,12a-hexahydro-2H-[1,3]oxazino[3,2-d]pyrido[1,2-a]pyrazin-7-yloxy)-3,4,5-trihydroxytetrahydro-2H-pyran-2-carboxylic acid) formation at 16 uM after 120 mins by radio-HPLC analysis. Conditions: recombinant enzyme. The class given is ADME.

In the next data set the target is T3, Cytochrome P450 2C8 (Homo sapiens, UniProt P10632).
T3 sequence (P10632 whole entry): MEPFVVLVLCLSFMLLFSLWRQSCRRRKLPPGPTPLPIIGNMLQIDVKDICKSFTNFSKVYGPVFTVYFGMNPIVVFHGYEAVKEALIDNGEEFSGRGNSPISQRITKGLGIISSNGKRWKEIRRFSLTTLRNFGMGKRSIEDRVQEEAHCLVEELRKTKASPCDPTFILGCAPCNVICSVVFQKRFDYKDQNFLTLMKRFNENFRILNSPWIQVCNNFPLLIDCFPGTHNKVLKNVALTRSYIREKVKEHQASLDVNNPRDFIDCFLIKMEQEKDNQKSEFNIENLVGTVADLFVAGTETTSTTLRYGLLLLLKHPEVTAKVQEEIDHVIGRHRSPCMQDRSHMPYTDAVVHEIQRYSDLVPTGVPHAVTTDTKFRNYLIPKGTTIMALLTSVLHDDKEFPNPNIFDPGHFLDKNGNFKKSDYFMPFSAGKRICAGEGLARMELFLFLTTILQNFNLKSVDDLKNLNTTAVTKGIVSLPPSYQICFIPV
Description: Metabolism-dependent inhibition of CYP2C8 in human liver microsomes using rosiglitazone as substrate preincubated for 20 mins with NADPH prior to initiation of reaction with probe substrate by HPLC analysis. Format: ADME.

The target in the next data set is Cytochrome P450 2A6 (Homo sapiens, UniProt P11509). In words: Inhibition of CYP2A6 in human liver microsomes using coumarin as substrate preincubated for 20 mins with substrate prior to initiation of reaction with NADPH by HPLC analysis. Format: ADME.

Molecules are shown by their SMILES.

Sequence of CYP2D6 (P10635 whole entry): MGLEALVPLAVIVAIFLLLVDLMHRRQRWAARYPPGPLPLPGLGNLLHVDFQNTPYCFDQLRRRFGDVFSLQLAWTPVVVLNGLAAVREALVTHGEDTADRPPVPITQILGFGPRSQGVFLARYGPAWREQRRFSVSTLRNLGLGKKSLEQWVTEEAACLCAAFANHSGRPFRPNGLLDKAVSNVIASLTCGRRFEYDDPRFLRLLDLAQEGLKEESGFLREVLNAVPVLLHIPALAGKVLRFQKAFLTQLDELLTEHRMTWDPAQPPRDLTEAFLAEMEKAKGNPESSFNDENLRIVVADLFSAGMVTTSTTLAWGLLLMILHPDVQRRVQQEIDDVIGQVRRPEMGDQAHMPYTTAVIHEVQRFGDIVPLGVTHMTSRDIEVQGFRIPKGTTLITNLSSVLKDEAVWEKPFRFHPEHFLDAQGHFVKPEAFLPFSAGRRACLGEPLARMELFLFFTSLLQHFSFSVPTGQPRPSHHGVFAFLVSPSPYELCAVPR
Sequence of Cytochrome P450 2A6 (P11509 whole entry): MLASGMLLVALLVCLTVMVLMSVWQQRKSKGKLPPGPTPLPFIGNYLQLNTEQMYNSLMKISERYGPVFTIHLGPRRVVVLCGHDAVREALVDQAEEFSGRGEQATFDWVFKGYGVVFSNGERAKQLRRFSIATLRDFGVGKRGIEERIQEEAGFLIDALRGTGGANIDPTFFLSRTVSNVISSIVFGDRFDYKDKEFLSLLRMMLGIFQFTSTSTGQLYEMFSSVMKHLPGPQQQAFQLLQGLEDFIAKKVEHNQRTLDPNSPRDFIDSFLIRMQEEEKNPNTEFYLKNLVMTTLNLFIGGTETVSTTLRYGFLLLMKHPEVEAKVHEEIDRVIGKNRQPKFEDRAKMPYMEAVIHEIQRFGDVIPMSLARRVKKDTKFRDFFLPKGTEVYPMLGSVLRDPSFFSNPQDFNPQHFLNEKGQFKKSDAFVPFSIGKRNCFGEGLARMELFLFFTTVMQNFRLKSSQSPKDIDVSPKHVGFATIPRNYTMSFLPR
Sequence of UDP-glucuronosyltransferase 1A4 (P22310 whole entry): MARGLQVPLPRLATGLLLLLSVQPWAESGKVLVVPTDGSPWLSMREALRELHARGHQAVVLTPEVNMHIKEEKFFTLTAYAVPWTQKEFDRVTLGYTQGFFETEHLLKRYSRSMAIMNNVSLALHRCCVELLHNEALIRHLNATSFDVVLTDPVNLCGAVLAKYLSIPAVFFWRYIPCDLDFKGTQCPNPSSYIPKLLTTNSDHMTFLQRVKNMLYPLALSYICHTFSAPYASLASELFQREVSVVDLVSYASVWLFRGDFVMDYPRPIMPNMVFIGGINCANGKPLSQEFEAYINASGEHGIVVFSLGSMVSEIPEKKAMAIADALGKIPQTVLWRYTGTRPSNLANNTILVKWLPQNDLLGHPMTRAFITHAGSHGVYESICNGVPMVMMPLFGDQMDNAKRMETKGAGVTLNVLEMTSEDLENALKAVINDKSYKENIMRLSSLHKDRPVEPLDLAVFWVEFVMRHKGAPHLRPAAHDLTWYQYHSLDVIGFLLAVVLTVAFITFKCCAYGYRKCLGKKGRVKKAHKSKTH

Consider `C[C@@H]1CCO[C@H]2Cn3cc(C(=O)NCc4ccc(F)cc4F)c(=O)c(O)c3C(=O)N12` [DOLUTEGRAVIR], for which, in data set [1], the CLH was found to be 2.7 µL/min/g. Further, the dose excreted in data set [2] is 31.6%. For the same molecule, the IC50 in [3] was 67 µM; at Cytochrome P450 2C8 it was above 100 µM; on Cytochrome P450 2A6 it was above 100 µM. For the same molecule, the Drug metabolism entry (in the data set with Liver microsome; in [5]) was “metabolite_not_detected” in each case. For the same molecule, the inhibition at 100 µM on CYP2D6 was 20%; at UGT1A1, 33%. Also, the CL in data set [4] was determined as 3.2 µL/min/g.
